The target in this assay is T1, human renal renin (Homo sapiens, UniProt P00797).
T1 construct: human renal renin, free from acid proteolytic activity; from tissue
T1 sequence (P00797 67-406): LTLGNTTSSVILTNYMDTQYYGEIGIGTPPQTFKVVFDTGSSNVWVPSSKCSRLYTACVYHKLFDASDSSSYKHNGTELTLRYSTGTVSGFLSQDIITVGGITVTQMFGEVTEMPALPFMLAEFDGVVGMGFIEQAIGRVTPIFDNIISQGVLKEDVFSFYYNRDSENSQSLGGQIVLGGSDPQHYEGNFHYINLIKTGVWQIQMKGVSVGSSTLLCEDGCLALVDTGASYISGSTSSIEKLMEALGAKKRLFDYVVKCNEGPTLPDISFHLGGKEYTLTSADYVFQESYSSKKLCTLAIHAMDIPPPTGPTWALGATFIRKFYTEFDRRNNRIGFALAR
The assay is described as follows: In vitro inhibition of human renal renin; angiotensin I formed measured by radioimmunoassay. The format is biochemical. To be noted: human renin substrate (angiotensinogen), 37° C., pH 6.0. The protocol:
At the end of the incubation, the amount of angiotensin I formed is measured by radioimmunoassay and the percent inhibition or renin is calculated.

Among the data in patent US4826815A, “Renin inhibiting compounds” (Abbott Laboratories, priority 1987, dated 1989) are Inhibition values, retold here.

Molecules are shown by their SMILES.

The molecule `O=C(NC(Cc1cnc[nH]1)C(=O)NC(CC1CCCCC1)C(O)CSC1CCCCC1)C(Cc1ccccc1)Cc1ccccc1` (stereo not drawn) [Example 81, Dba-His Amide of 3-amino-4-cyclohexyl-1-cyclohexylmercapto-2-hydroxybutane] gave an Inhibition (@ 10^-7) of 71%.

As for `CC(C)CC(NC(=O)C(C)NC(=O)C(Cc1ccccc1)NC(=O)OC(C)(C)C)C(O)CSCc1ccccc1` (stereo not drawn) [Example 28, Boc-Phe-Ala amide of 3 amino 1-benzylmercapto-2 hydroxy-5-methylhexane], for the setting “@ 10^-5”, the Inhibition was determined as 57%.

`CC(C)CC(NC(=O)C(Cc1cnc[nH]1)NC(=O)C(Cc1ccccc1)NC(=O)OC(C)(C)C)C(O)CSc1ccccc1` (stereo not drawn) [Example 23, Boc-Phe-His amide of 3-amino-2 hydroxy-5-methyl 1-phenylmercaptohexane] showed an Inhibition (@ 10^-6) of 56%.

As for `CC(C)CC(NC(=O)C(C)NC(=O)C(Cc1ccccc1)NC(=O)OC(C)(C)C)C(O)CSC1CCCCC1` (stereo not drawn) [Example 29, Boc-Phe-Ala amide of 3-amino-1-cyclohexyl mercapto-2-hydroxy-5-methylhexane], the Inhibition (@ 10^-5) came to 94%.

Turning to `CC(C)CC(NC(=O)C(C)NC(=O)C(Cc1ccccc1)NC(=O)OC(C)(C)C)C(O)CSc1ccccc1` (stereo not drawn) [Example 25, Boc-Phe-Ala amide of 3-amino-2-hydroxy-5-methyl-1 phenylmercaptohexane], the Inhibition (@ 10^-5) was determined as 56%.

Where the note is “@ 10^-7”, `CC(C)(C)OC(=O)NC(Cc1ccccc1)C(=O)NC(Cc1cnc[nH]1)C(=O)NC(Cc1ccccc1)C(O)CSC1CCCCC1` (stereo not drawn) [Example 50, Boc-Phe-His amide of 3-amino-1-cyclohexylmercapto-2-hydroxy-4-phenylbutane] displayed an Inhibition of 89%.

Molecule `CC(C)SCC(O)C(CC1CCCCC1)NC(=O)C(Cc1cnc[nH]1)NC(=O)C(Cc1ccccc1)NC(=O)OC(C)(C)C` (stereo not drawn) [Example 51, Boc-Phe-His amide of 3 amino-4-cyclohexyl-2-hydroxy-1-isopropylmercaptobutane] had an Inhibition (@ 10^-8) of 80%.

With `CC(C)(C)CC(=O)NC(Cc1ccccc1)C(=O)NC(Cc1c[nH]cn1)C(=O)NC(CC1CCCCC1)C(O)CSC1CCCCC1` (stereo not drawn) [Example 82, Tba-Phe-His-Amide of 3-amino-4-cyclohexyl-1-cyclohexylmercapto-2-hydroxybutane], the Inhibition (@ 10^-8) was determined as 82%.

Consider `CC(C)CC(=O)NCC(O)C(CC(C)C)NC(=O)C(Cc1cnc[nH]1)NC(=O)C(Cc1ccccc1)NC(=O)OC(C)(C)C` (stereo not drawn) [Example 79, Boc-Phe-His Amide of 3-Amino-2- hydroxy-1-(isovalerylamino)-5-methylhexane], for which, for the setting “@ 10^-6”, the Inhibition turned out to be 63%.

Turning to `CC(C)CC(NC(=O)C(C)NC(=O)C(Cc1ccccc1)NC(=O)OC(C)(C)C)C(O)CNc1ccccc1` (stereo not drawn) [Example 31, Boc-Phe-Ala amide of 3-amino-2-hydroxy-5-methyl-1-phenylaminohexane], the Inhibition (@ 10^-5) worked out at 31%.

Turning to `CC(C)(C)OC(=O)NC(Cc1ccccc1)C(=O)NC(Cc1cnc[nH]1)C(=O)NC(CC1CCCCC1)C(O)CS(=O)(=O)C1CCCCC1` (stereo not drawn) [Example 54, Boc-Phe-His amide of 3 amino-4-cyclohexyl-1-cyclohexylsulfonyl-2-hydroxybutane], the Inhibition (@ 10^-8) is recorded as 81%.

As for `CC(C)CC(NC(=O)C(C)NC(=O)C(Cc1ccccc1)NC(=O)OC(C)(C)C)C(O)C[S+]([O-])C1CCCCC1` (stereo not drawn) [Example 55, Boc-Phe Ala amide of 3-amino-1-cyclohexyl sulfinyl-2-hydroxy-5-methylhexane], where the note is “@ 10^-5”, the Inhibition was found to be 46%.
